Read-outs that look alike come from different tables or passages of the source.
Tested on: cigarette smoke-induced 3-nitrotyrosine formation in the lung parenchyma
Details: for 3-nitrotyrosine stained surface area, mean ± SEM: n=5 mice, room air 0.24 ± 0.09, cigarette smoke + diluent 3.07 ± 0.39
Procedure: 5-amino-2,3-dihydro-1,4-phthalazinedione sodium salt Form I was tested in an isolated, ventilated and perfused mouse lung system that was stimulated with cigarette smoke.
The isolated, ventilated and perfused mouse lung system (ILU) is an established model for studying acute effects of various conditions and drugs on lung parenchyma and vasculature. It is mainly used for examining effects of hypoxia and for evaluating the efficacy of potential drugs on the hypoxic pulmonary vasoreaction (cf. Weissmann et al. (2006) Proc Natl Acad Sci USA 103: 19093-19098).
C57BL/6J mice (n=25, 5 per group; male/female, 3-6 months, 20-30 g; Charles River GmbH, Sulzfeld, Germany) were anesthetized with a ketamine (100 mg/kg body weight) and xylazine (20 mg/kg body weight) intraperitoneal injection (Ceva Tiergesundheit GmbH, Dusseldorf, Germany) containing heparin (50 I.E. heparin/g body weight; Ratiopharm GmbH, Ulm, Germany). The lungs and the heart were removed from the chest cavity and placed on the ILU system (see FIGS. 1A and 1B). Lungs were ventilated in an isolated chamber using normoxic gas (21% O2, 5% CO2, 74% N2; 150 breaths per minute at the PEEP (positive end-expiratory pressure) of 3 cm H2O) and perfused with a modified Krebs-Henseleit buffer (120.0 mM NaCl, 4.3 mM KCl, 1.1 mM KH2PO4, 2.4 mM CaCl2, 1.3 mM MgCl2, 13.14 mM glucose, 0.25 mM hydroxyethyl starch 200000/0.5, 25.0 mM NaHCO3 adjusted to a constant pH range of […] L-arginine; Serag-Wissner GmbH & Co. KG, Naila, Germany) at a temperature of 37° C. Lung weight, right and left ventricle pressure, as well as ventilatory pressure were monitored and recorded during the whole experimental procedure. After 5-10 minutes, when the lung was properly flushed and all the parameters were stable, 5-amino-2,3-dihydro-1,4-phthalazinedione sodium salt was applied by adding 150 μl of a stock solution to 15 ml of the circulating perfusion buffer. The substance was applied 10 minutes prior to the first cigarette smoke application. Cigarette smoke was applied via trachea while lung is perfused with the buffer containing 5-amino-2,3-dihydro-1,4-phthalazinedione sodium salt. Cigarette smoke was prepared freshly before each application, by burning one cigarette (research cigarettes 3R4F, University of Kentucky, USA) in one minute using normoxic gas at the flow of 11/min and collected in a 1 I glass bottle containing 5 g silica gel for removing the moist from the cigarette smoke. 50 ml of the cigarette smoke were taken via a syringe and applied to the lung via trachea (FIG. 1A) in deep breaths (periodic inflation for 3-4 s) over a period of 5 min. The application was done manually while carefully monitoring the inspiratory pressure to avoid damage of the lung. The cigarette smoke application was repeated three times with a 1 hour break in-between.
Five treatment groups (n=5, respectively) were investigated: • A: room air exposure • B: cigarette smoke+diluent (buffer solution) • C: cigarette smoke+0.5 mM 5-amino-2,3-dihydro-1,4-phthalazinedione sodium salt • D: cigarette smoke+1 mM 5-amino-2,3-dihydro-1,4-phthalazinedione sodium salt • E: cigarette smoke+2 mM 5-amino-2,3-dihydro-1,4-phthalazinedione sodium salt
5-amino-2,3-dihydro-1,4-phthalazinedione sodium salt Form I was dissolved in water for injection (vehicle) at the required concentrations described above. Stock solutions were prepared in water for injection. Further 1:100 dilutions were made with modified Krebs-Henseleit buffer (see above). Stock solutions were stored at −70° C. in appropriate aliquots. The required amount of stock solution was thawed, and the corresponding working solution was prepared for immediate use.
One hour after the third cigarette smoke application lungs were removed from the system and fixed by inflating with formalin solution (via trachea) at the pressure of 12-15 cm H2O for two hours at room temperature.

## Nc1cccc2c(=O)[nH][nH]c(=O)c12.[Na] [5-amino-2,3-dihydro-1,4-phthalazinedione sodium salt]
0.5 mM in perfusion buffer (FIG. 2C)
  effect on cigarette smoke induced 3-nitrotyrosine formation (in words): moderate effect
1 mM in perfusion buffer (FIG. 2D)
  effect on cigarette smoke induced 3-nitrotyrosine formation (in words): almost completely abolished
2 mM in perfusion buffer (FIG. 2E)
  effect on cigarette smoke induced 3-nitrotyrosine formation (in words): almost completely abolished
Cigarette smoke + 0.5 mM in perfusion buffer
  3-nitrotyrosine stained surface area, mean ± SEM: 2.24 ± 0.28 % area
Cigarette smoke + 1 mM in perfusion buffer
  3-nitrotyrosine stained surface area, mean ± SEM: 0.72 ± 0.26 % area
Cigarette smoke + 2 mM in perfusion buffer
  3-nitrotyrosine stained surface area, mean ± SEM: 0.37 ± 0.13 % area
pre-treatment 10 minutes prior to the first cigarette smoke application, ILU model
  cigarette smoke-induced 3-nitrotyrosine formation in the lung parenchyma, conclusion (in words): prevents cigarette smoke-induced 3-nitrotyrosine formation
Summary over 0.5, 1 and 2 mM
  ROS/RNS levels in cigarette smoke-stimulated mouse lung (in words): dose-dependent reduction of ROS/RNS levels down to control levels

— patent US12616695B2, “Use of 5-amino-2,3-dihydro-1,4-phthalazinedione in the treatment of rare chronic inflammatory pulmonary diseases” (Metriopharm AG, priority 2020, dated 2026)
